Source: ChEMBL document CHEMBL1153282, “N-substituted 2'-(aminoaryl)benzothiazoles as kinase inhibitors: hit identification and scaffold hopping” (Bioorg Med Chem Lett, 2009)

Columns and labels:
Aurora kinase A = molecular target: T1, Aurora kinase A (Homo sapiens, UniProt O14965); assay: Inhibition of Aurora A by virtual HTS assay
T1 sequence (O14965 whole entry): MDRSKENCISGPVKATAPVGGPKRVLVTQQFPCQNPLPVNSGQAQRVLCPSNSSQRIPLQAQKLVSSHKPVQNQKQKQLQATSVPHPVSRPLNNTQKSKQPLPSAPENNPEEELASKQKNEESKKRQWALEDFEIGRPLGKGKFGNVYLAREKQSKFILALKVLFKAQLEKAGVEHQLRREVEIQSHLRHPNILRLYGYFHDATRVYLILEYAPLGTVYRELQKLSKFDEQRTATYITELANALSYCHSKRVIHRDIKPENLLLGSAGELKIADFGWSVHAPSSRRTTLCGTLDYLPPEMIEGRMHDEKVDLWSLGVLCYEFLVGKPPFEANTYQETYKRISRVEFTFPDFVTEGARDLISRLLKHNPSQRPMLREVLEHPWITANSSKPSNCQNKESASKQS

[1] = molecular target: Insulin-like growth factor 1 receptor (Homo sapiens, UniProt P08069); assay: Inhibition of IGF1R by virtual HTS assay
Aurora kinase B = Aurora kinase B (Homo sapiens, UniProt Q96GD4); assay: Inhibition of Aurora B by virtual HTS assay
[2] = molecular target: Proto-oncogene tyrosine-protein kinase Src (Homo sapiens, UniProt P12931); assay: Inhibition of Src by virtual HTS assay
[3] = molecular target: Epidermal growth factor receptor (Homo sapiens, UniProt P00533); assay: Inhibition of EGFR by virtual HTS assay
Insulin receptor = Insulin receptor (Homo sapiens, UniProt P06213); assay: Inhibition of insulin receptor by virtual HTS assay
Ephrin type-B receptor 4 = molecular target: T2, Ephrin type-B receptor 4 (Homo sapiens, UniProt P54760); assay: Inhibition of EphB4 by virtual HTS assay
T2 sequence (P54760 whole entry): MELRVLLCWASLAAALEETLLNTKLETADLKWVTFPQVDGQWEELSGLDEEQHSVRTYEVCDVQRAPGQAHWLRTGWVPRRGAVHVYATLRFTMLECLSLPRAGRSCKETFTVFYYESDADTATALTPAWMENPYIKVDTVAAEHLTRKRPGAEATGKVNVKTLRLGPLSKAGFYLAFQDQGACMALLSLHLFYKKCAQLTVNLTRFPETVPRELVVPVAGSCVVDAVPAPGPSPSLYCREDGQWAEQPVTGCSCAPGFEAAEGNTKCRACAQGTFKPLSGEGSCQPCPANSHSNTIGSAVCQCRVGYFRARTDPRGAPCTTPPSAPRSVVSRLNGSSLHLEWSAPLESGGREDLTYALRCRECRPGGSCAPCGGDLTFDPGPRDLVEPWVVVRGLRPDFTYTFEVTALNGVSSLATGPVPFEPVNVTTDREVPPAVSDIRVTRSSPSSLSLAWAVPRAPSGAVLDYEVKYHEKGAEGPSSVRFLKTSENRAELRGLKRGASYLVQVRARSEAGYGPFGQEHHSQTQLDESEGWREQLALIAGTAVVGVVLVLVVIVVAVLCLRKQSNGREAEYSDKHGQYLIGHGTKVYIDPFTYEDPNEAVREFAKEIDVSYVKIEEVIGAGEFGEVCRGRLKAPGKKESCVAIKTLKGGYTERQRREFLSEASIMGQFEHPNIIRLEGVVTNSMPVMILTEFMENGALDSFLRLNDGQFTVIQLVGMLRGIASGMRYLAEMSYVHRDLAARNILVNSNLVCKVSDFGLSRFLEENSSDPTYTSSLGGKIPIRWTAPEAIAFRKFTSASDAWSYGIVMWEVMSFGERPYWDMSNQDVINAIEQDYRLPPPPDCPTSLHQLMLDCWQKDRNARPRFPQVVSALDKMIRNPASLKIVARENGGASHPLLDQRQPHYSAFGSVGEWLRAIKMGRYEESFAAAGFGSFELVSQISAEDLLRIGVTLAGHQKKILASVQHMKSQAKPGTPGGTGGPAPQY

[4] = molecular target: Vascular endothelial growth factor receptor 2 (Homo sapiens, UniProt P35968); assay: Inhibition of VEGFR2 by virtual HTS assay
[5] = molecular target: Platelet-derived growth factor receptor beta (Homo sapiens, UniProt P09619); assay: Inhibition of PDGFRbeta by virtual HTS assay
[6] = molecular target: Vascular endothelial growth factor receptor 3 (Homo sapiens, UniProt P35916)
Description: Inhibition of VEGFR3 by virtual HTS assay

Angiopoietin-1 receptor = Angiopoietin-1 receptor (Homo sapiens, UniProt Q02763); assay: Inhibition of TIE2 by virtual HTS assay
Focal adhesion kinase 1 = Focal adhesion kinase 1 (Homo sapiens, UniProt Q05397); assay: Inhibition of FAK by virtual HTS assay
[7] = molecular target: Cyclin-dependent kinase 2 (Homo sapiens, UniProt P24941); assay: Inhibition of CDK2 by virtual HTS assay
[8] = molecular target: Cyclin-dependent kinase 4 (Homo sapiens, UniProt P11802); assay: Inhibition of CDK4 by virtual HTS assay

Sequence of Vascular endothelial growth factor receptor 3 (P35916 whole entry): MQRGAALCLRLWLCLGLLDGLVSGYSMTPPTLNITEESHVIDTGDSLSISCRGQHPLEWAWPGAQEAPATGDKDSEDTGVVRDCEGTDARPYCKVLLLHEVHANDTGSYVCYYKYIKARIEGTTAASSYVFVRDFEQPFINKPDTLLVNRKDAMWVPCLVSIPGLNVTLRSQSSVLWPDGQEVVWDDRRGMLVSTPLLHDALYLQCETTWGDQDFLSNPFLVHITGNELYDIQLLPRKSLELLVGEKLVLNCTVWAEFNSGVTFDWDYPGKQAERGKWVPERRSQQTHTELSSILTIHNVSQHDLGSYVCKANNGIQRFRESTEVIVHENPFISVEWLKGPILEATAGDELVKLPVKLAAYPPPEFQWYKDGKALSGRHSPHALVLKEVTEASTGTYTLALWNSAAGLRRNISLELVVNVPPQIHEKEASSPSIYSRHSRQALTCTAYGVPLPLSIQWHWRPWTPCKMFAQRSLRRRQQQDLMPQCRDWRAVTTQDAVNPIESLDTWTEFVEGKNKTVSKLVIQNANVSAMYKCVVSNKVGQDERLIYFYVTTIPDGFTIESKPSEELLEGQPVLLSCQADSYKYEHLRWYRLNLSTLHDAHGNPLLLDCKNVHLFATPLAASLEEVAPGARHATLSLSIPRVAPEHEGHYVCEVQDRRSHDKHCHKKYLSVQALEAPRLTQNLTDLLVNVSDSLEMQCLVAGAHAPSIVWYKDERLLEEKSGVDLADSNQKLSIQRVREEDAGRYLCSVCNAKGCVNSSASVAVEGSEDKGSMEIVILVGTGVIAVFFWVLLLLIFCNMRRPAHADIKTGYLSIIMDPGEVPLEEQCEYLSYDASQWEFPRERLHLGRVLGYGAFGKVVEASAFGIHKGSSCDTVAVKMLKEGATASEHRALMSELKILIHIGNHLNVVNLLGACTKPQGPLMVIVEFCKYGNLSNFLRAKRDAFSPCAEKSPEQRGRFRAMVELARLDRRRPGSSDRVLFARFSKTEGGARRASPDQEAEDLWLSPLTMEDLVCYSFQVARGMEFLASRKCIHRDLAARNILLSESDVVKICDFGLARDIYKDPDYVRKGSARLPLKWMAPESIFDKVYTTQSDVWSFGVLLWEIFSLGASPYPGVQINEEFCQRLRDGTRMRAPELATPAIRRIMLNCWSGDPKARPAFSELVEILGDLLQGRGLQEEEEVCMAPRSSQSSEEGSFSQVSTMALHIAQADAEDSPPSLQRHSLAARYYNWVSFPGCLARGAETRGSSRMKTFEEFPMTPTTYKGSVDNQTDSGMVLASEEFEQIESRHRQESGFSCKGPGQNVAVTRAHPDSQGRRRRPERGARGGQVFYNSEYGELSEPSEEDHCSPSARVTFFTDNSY
Sequence of Insulin receptor (P06213 28-758 limits assumed): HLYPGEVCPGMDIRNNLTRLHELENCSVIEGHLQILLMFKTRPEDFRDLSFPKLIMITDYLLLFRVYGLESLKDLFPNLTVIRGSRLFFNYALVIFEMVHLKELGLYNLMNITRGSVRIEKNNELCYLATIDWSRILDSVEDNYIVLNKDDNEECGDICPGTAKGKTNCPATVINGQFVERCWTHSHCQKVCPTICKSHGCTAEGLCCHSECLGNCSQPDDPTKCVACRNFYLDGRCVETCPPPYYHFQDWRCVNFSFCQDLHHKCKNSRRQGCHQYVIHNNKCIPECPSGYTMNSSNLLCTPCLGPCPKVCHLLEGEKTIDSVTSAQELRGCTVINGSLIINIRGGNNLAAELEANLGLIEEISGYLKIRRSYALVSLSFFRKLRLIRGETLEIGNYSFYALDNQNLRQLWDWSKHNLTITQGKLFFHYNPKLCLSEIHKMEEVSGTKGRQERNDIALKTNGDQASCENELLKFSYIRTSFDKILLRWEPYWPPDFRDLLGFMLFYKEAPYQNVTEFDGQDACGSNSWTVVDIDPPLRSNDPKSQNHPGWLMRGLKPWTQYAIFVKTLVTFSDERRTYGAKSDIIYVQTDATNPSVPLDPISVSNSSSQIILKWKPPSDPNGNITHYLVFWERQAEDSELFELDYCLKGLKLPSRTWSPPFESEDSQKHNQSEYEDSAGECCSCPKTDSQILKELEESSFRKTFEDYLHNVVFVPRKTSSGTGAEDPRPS
Sequence of Insulin receptor (P06213 763-1382 limits assumed): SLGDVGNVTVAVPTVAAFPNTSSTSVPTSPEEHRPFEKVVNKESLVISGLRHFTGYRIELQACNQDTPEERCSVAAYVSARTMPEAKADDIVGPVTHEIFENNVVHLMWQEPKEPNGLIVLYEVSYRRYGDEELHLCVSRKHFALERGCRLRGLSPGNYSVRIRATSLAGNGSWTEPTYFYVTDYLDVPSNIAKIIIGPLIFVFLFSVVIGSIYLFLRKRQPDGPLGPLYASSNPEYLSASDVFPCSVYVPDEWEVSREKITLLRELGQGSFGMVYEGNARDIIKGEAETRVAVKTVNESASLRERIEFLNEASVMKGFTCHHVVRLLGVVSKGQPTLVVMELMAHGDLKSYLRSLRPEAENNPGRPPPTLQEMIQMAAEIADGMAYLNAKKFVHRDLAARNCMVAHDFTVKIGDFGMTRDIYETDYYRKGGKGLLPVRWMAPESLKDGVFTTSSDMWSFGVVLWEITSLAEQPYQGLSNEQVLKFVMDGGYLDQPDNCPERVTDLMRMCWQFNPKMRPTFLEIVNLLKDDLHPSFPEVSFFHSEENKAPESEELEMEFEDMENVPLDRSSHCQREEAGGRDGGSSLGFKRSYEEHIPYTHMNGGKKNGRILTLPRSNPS
Sequence of Proto-oncogene tyrosine-protein kinase Src (P12931 2-536 limits assumed): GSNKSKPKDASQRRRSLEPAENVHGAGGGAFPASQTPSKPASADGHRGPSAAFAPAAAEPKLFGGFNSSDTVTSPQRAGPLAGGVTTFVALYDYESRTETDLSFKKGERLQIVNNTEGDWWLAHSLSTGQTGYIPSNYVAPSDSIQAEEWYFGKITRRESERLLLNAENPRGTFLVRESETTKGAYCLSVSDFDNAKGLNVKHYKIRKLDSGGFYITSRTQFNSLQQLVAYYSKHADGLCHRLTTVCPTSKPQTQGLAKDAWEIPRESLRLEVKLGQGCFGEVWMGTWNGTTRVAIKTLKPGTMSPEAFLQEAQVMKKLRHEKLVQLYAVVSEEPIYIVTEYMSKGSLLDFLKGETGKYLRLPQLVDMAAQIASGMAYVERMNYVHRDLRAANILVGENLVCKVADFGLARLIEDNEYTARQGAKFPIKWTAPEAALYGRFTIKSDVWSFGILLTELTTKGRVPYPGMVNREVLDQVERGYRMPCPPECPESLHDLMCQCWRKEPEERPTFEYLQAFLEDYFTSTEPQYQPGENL
Sequence of Vascular endothelial growth factor receptor 2 (P35968 whole entry): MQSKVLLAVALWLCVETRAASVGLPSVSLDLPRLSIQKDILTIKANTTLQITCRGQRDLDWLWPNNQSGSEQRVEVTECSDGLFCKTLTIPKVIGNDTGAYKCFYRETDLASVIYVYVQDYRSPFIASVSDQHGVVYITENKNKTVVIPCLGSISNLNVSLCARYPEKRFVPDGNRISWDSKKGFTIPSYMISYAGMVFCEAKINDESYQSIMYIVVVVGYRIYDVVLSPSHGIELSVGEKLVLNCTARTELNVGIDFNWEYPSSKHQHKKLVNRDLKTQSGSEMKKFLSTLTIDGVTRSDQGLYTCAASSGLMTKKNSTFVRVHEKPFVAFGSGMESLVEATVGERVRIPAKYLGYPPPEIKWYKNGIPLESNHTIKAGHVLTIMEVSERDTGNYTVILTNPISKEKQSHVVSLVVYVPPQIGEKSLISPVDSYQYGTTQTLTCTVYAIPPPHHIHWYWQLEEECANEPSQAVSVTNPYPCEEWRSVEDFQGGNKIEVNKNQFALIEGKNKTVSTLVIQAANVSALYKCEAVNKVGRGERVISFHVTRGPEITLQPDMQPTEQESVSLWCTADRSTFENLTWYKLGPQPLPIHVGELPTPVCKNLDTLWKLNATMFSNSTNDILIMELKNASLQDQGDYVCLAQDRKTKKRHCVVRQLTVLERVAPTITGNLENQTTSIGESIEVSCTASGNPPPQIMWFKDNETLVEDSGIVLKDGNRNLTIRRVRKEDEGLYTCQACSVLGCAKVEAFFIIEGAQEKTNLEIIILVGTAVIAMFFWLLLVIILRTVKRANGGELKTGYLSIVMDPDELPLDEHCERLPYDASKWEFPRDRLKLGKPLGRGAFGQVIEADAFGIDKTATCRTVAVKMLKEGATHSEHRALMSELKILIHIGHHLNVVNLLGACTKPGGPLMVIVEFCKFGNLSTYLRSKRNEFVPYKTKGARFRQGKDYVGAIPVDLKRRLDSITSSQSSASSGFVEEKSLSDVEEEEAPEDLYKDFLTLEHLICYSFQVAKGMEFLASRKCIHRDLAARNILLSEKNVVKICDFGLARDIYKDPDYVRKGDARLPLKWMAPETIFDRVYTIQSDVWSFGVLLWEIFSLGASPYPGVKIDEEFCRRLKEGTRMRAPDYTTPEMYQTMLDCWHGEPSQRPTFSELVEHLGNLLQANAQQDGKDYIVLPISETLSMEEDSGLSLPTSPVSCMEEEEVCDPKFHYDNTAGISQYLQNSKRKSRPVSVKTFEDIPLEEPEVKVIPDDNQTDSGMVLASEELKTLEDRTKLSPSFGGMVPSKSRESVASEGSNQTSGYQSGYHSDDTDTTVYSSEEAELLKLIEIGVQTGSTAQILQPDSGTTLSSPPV
Sequence of Aurora kinase B (Q96GD4 whole entry): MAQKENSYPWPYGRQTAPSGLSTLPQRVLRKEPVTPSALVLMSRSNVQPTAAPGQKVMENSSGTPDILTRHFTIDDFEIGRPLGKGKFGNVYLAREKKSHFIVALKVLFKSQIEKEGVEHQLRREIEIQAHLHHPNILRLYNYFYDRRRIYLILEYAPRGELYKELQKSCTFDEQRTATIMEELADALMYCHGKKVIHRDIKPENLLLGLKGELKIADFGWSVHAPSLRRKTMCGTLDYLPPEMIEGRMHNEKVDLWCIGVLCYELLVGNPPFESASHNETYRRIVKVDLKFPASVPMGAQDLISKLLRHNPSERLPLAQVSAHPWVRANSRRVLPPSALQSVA

| IC50 (Aurora kinase A) [nM] | IC50 [1] [nM] | IC50 (Aurora kinase B) [nM] | IC50 [2] [nM] | IC50 [3] [nM] | IC50 (Insulin receptor) [nM] | IC50 (Ephrin type-B receptor 4) [nM] | IC50 [4] [nM] | IC50 [5] [nM] | IC50 [6] [nM] | IC50 (Angiopoietin-1 receptor) [nM] | IC50 [8] [nM] | Structure (SMILES) | IC50 (Focal adhesion kinase 1) [nM] | IC50 [7] [nM] |
| --- | --- | --- | --- | --- | --- | --- | --- | --- | --- | --- | --- | --- | --- | --- |
| 2700 | 3300 | > 10000 | 300 | > 10000 | > 10000 | > 10000 | 1000 | – | – | > 10000 | – | Cc1cc2c(Nc3ccc(-c4nc5ccccc5s4)cc3)ncnc2cc1Cl | – | – |
| > 10000 | > 10000 | > 10000 | > 10000 | > 10000 | 630 | > 10000 | > 10000 | – | – | > 10000 | – | CNc1nc(Nc2ccc(-c3nc4ccccc4s3)cc2)c2cc(OC)c(OC)cc2n1 | – | – |
| 5700 | 860 | 750 | 630 | 5300 | 2700 | 1400 | 640 | – | – | 7000 | – | Clc1ccc2c(Nc3ccc(-c4nc5ccccc5s4)cc3)ccnc2c1 | – | – |
| 5300 | 7500 | 920 | – | 1600 | 7900 | – | – | – | – | – | 6600 | COc1cc2ncnc(Nc3ccc(N4Cc5ccccc5C4)cc3)c2cc1OC | – | – |

The next lines start with the compound.

| Structure (SMILES) | IC50 (Aurora kinase A) [nM] | IC50 [1] [nM] | IC50 (Aurora kinase B) [nM] | IC50 [2] [nM] | IC50 [3] [nM] | IC50 (Insulin receptor) [nM] | IC50 (Ephrin type-B receptor 4) [nM] | IC50 [4] [nM] | IC50 [5] [nM] | IC50 [6] [nM] | IC50 (Angiopoietin-1 receptor) [nM] | IC50 [8] [nM] | IC50 (Focal adhesion kinase 1) [nM] | IC50 [7] [nM] |
| --- | --- | --- | --- | --- | --- | --- | --- | --- | --- | --- | --- | --- | --- | --- |
| Cc1cc(Nc2ccnc(Nc3cccc(-c4nc5ccccc5s4)c3)n2)n[nH]1 | 160 | 100 | 2000 | 190 | 1900 | 1600 | > 10000 | 7500 | > 10000 | 2500 | > 10000 | – | – | – |
| COc1cc2ncnc(Nc3ccc(F)c(Cl)c3)c2cc1OC | 6500 | – | 7400 | – | – | 2600 | 480 | 510 | 3000 | 2400 | 8300 | – | – | – |
| COc1cc(Nc2ccnc3cc(Cl)ccc23)ccc1-c1nc2ccccc2s1 | > 10000 | > 10000 | > 10000 | > 10000 | > 10000 | > 10000 | > 10000 | > 10000 | – | – | > 10000 | – | – | – |
| O=C(NC(=S)Nc1ccc(O)c(-c2nc3ccccc3s2)c1)c1ccc([N+](=O)[O-])cc1 | – | 310 | – | 190 | 280 | – | 610 | 3000 | 1000 | 1000 | 3000 | – | 900 | 700 |
